Our source for the Km values is paper PMC5028181 (PLoS ONE, 2016).

For orientation: Km means the substrate concentration at which the rate is half of its maximum.

In the experiment the test system is T1, BmObc1 (oxalate biosynthetic component 1; His-BmObc1).
T1 construct: gene obc1
The experiment is classed as biochemical, Burkholderia mallei.
Turning to `CC(=O)SCCNC(=O)CCNC(=O)[C@H](O)C(C)(C)COP(=O)(O)OP(=O)(O)OC[C@H]1O[C@@H](n2cnc3c(N)ncnc32)[C@H](O)[C@@H]1OP(=O)(O)O` [acetyl-CoA], the Michaelis-Menten constant (Km) was 26.8 ± 2.3 µM.

In the case of `O=C(O)CC(=O)C(=O)O` [oxaloacetate], the Km worked out at 94.3 ± 9.2 µM.

`CCC(=O)SCCNC(=O)CCNC(=O)[C@H](O)C(C)(C)COP(=O)(O)OP(=O)(O)OC[C@H]1O[C@@H](n2cnc3c(N)ncnc32)[C@H](O)[C@@H]1OP(=O)(O)O` [propionyl-CoA]: the Michaelis constant (Km) was 104 ± 12.7 µM.
